Earlier results, collected in publication PMC6494845 (Scientific Reports, 2019).

Columns and labels:
[1] = set-up: method as in PMID 17004725; settings: normal mice; cited from earlier work
Aβ aggregates = test system: Aβ aggregates; set-up: method as in PMID 17004725; settings: compared with curcumin; cited from earlier work
HIV-1 protease = test system: HIV-1 protease; set-up: method as in PMID 8087563; settings: cited from earlier work
[2] = set-up: method as in PMID 19807070; settings: in methanol; cited from earlier work
[3] = set-up: method as in PMID 9278892; settings: cell culture medium containing 10% fetal calf serum and human blood, at 1 h; cited from earlier work

Compound: COc1cc(/C=C/C(=O)CC(=O)/C=C/c2ccc(OCCC[18F])c(OC)c2)ccc1O [4′-O-[^18F]fluoropropylcurcumin]
- brain permeability [1]: poor brain permeability

Compound: COc1cc(/C=C/C(=O)CC(=O)/C=C/c2ccc(OCCCF)c(OC)c2)ccc1O [4′-O-fluoropropylcurcumin]
- in vitro binding affinity for Aβ aggregates (Aβ aggregates): much higher than that of curcumin

Compound: curcumin
- IC50 (HIV-1 protease): 100 µM
- emission [2]: 560 nm
- excitation [2]: 510 nm
- stability (% remaining) [3]: > 80%
